Assay results from the NIST ThermoML archive (doi:10.1016/j.fluid.2008.10.003).
Numbers after ± are expanded uncertainties.

Assay: isobaric coefficient of expansion
Conditions: calorimetric method

In the case of CCCCCCO [hexan-1-ol], the “isobaric coefficient of expansion” value (278.15 K, 5000 kPa) is reported as 0.000821 ± 3.5e-05 1/K, the “isobaric coefficient of expansion” value (278.15 K, 10000 kPa) is reported as 0.0008 ± 3.4e-05 1/K and the “isobaric coefficient of expansion” value (278.15 K, 15000 kPa) is reported as 0.000788 ± 3.3e-05 1/K. The “isobaric coefficient of expansion” value (278.15 K, 20000 kPa) was 0.000778 ± 3.3e-05 1/K, the “isobaric coefficient of expansion” value (278.15 K, 25000 kPa) was 0.00076 ± 3.2e-05 1/K and the “isobaric coefficient of expansion” value (278.15 K, 30000 kPa) was 0.000748 ± 3.2e-05 1/K. For the same compound, the “isobaric coefficient of expansion” value (278.15 K, 35000 kPa) was 0.000733 ± 3.1e-05 1/K, the “isobaric coefficient of expansion” value (278.15 K, 40000 kPa) was 0.000723 ± 3.1e-05 1/K and the “isobaric coefficient of expansion” value (278.15 K, 45000 kPa) was 0.000716 ± 3e-05 1/K. The “isobaric coefficient of expansion” value (278.15 K, 50000 kPa) was 0.000708 ± 3e-05 1/K, the “isobaric coefficient of expansion” value (298.15 K, 5000 kPa) was 0.00085 ± 3.6e-05 1/K and the “isobaric coefficient of expansion” value (298.15 K, 10000 kPa) was 0.000832 ± 3.5e-05 1/K. The “isobaric coefficient of expansion” value (298.15 K, 15000 kPa) was 0.000812 ± 3.4e-05 1/K, the “isobaric coefficient of expansion” value (298.15 K, 20000 kPa) was 0.000796 ± 3.4e-05 1/K and the “isobaric coefficient of expansion” value (298.15 K, 25000 kPa) was 0.00078 ± 3.3e-05 1/K. The “isobaric coefficient of expansion” value (298.15 K, 30000 kPa) was 0.000764 ± 3.2e-05 1/K, the “isobaric coefficient of expansion” value (298.15 K, 35000 kPa) was 0.000749 ± 3.2e-05 1/K and the “isobaric coefficient of expansion” value (298.15 K, 40000 kPa) was 0.000734 ± 3.1e-05 1/K. The “isobaric coefficient of expansion” value (298.15 K, 45000 kPa) was 0.000724 ± 3.1e-05 1/K, the “isobaric coefficient of expansion” value (298.15 K, 50000 kPa) was 0.000712 ± 3e-05 1/K and the “isobaric coefficient of expansion” value (328.15 K, 5000 kPa) was 0.000929 ± 3.9e-05 1/K. The “isobaric coefficient of expansion” value (328.15 K, 10000 kPa) was 0.0009 ± 3.8e-05 1/K, the “isobaric coefficient of expansion” value (328.15 K, 15000 kPa) was 0.000876 ± 3.7e-05 1/K and the “isobaric coefficient of expansion” value (328.15 K, 20000 kPa) was 0.000854 ± 3.6e-05 1/K. For the same compound, the “isobaric coefficient of expansion” value (328.15 K, 25000 kPa) was 0.000833 ± 3.5e-05 1/K, the “isobaric coefficient of expansion” value (328.15 K, 30000 kPa) was 0.000813 ± 3.4e-05 1/K and the “isobaric coefficient of expansion” value (328.15 K, 35000 kPa) was 0.000794 ± 3.4e-05 1/K. The “isobaric coefficient of expansion” value (328.15 K, 40000 kPa) was 0.000776 ± 3.3e-05 1/K, the “isobaric coefficient of expansion” value (328.15 K, 45000 kPa) was 0.000759 ± 3.2e-05 1/K and the “isobaric coefficient of expansion” value (328.15 K, 50000 kPa) was 0.000745 ± 3.2e-05 1/K. The “isobaric coefficient of expansion” value (348.15 K, 5000 kPa) was 0.000995 ± 4.2e-05 1/K, the “isobaric coefficient of expansion” value (348.15 K, 10000 kPa) was 0.00096 ± 4.1e-05 1/K and the “isobaric coefficient of expansion” value (348.15 K, 15000 kPa) was 0.000929 ± 3.9e-05 1/K. The “isobaric coefficient of expansion” value (348.15 K, 20000 kPa) was 0.000903 ± 3.8e-05 1/K, the “isobaric coefficient of expansion” value (348.15 K, 25000 kPa) was 0.000875 ± 3.7e-05 1/K and the “isobaric coefficient of expansion” value (348.15 K, 30000 kPa) was 0.000852 ± 3.6e-05 1/K. The “isobaric coefficient of expansion” value (348.15 K, 35000 kPa) was 0.000831 ± 3.5e-05 1/K, the “isobaric coefficient of expansion” value (348.15 K, 40000 kPa) was 0.000808 ± 3.4e-05 1/K and the “isobaric coefficient of expansion” value (348.15 K, 45000 kPa) was 0.000791 ± 3.4e-05 1/K. The “isobaric coefficient of expansion” value (348.15 K, 50000 kPa) was 0.000772 ± 3.3e-05 1/K.
